Laboratory results as given in patent US6645966B2, “Treatment of malaria with farnesyl protein transferase inhibitors” (Schering Corporation, priority 2001, dated 2003).
pEC50: −log10 of the molar value. Like-named read-outs stand apart in the source and are kept apart here.

Assays:
[1] = tested on: P. falciparum (strain C10, partially chloroquine resistant strain); experiment: In Vitro Plasmodium falciparum Growth Inhibition Assay ([3H]-hypoxanthine uptake into infected erythrocytes); assay type: cell-based; details: Erythrocyte
Protocol: The growth activity of P. falciparum was determined by measuring the uptake of the radiolabeled nucleic acid precursor [3H]-hypoxanthine from the media into infected erythrocytes by a method similar to that reported by Jomaa et al (1999). In this method human red blood cells (RBC) were infected with P. falciparum (strain C10, partially chloroquine resistant strain) to 0.4% parasitemia (0.4% of the RBC contain at least 1 parasite). The infected human RBC cells were adjusted to a hematocrit of 2% and 200 μl was plated into 96 well plates. DMSO solutions of inhibitors were added to the plates to make final concentrations of inhibitors from 20 μM to 0.2 μM and a final concentration of DMSO between 0.2 and 1%. The inhibitor-RBC solutions were incubated for 48 hours followed by the addition of [3H]-hypoxanthine to each well and further incubated for 24 hours. The incorporation of [3H]-hypoxanthine into the parasite DNA was measured by acid precipitating the nucleic acid content onto filters, washing the filters and counting the incorporated radioactivity in a scintillation counter.

| Compound | melting point | other results |
| --- | --- | --- |
| O=CN(O)CCCP(=O)(O)O [fosmidomycin] | – | pEC50 ([1]; P. falciparum strain C10 in infected human RBC, 0.4% parasitemia, 48 hours incubation then [3H]-hypoxanthine for 24 hours, read-out: ED50 (the source's name)): 6.22 |
| Clc1ccc2c(c1)CCc1cccnc1C2N1CCC[C@H](Cn2ccnc2)C1 (single isomer, unassigned) | 71 to 75 °C | – |
| CCN(CC)CCCC(C)Nc1ccnc2cc(Cl)ccc12 (stereo not shown) [chloroquine] | – | pEC50 ([1]; read-out: ED50): 6.59 |
| N#Cc1ccc(Cn2cncc2CCNC(=O)[C@H]2CN(Cc3ccncc3)CCN2C(=O)NC2CCCCC2)cc1 | 80 °C (dec.) | – |
